In ChEMBL document CHEMBL1201862, “PubChem BioAssay data set” (2004):
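Grown in 96-well plates, cells were treated for 48 hours with each compound at five concentrations. Insufficient inhibition: endpoint recorded as highest concentration tested. GI50 is the concentration that inhibits growth by half.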 Calls of active or inactive are those of the source. Cut-off read from the data, not from the text of the source: active = GI50 up to about 1.1 µM and inactive = higher.

Experiments:
Test in all cases: growth of human tumour cells (NCI), 48 h
[1] = tested on: A498
[2] = tested on: A549
[3] = tested on: COLO 205
[4] = tested on: EKVX
[5] = tested on: HCT-15
[6] = tested on: M14
[7] = tested on: NCI-H23
[8] = tested on: NCI/ADR-RES
[9] = tested on: OVCAR-5
[10] = tested on: OVCAR-8
[11] = tested on: RXF 393
[12] = tested on: SK-MEL-28
[13] = tested on: SN12C
[14] = tested on: SNB-75
[15] = tested on: SR
[16] = tested on: T47D
[17] = tested on: U-251
[18] = tested on: LOX IMVI
[19] = tested on: OVCAR-4

| Compound | GI50 [1] | GI50 [2] | GI50 [3] | GI50 [4] | GI50 [5] [µM] | GI50 [6] | GI50 [7] | GI50 [8] | GI50 [9] | GI50 [10] | GI50 [11] | GI50 [12] | GI50 [13] | GI50 [14] | GI50 [15] | GI50 [16] | GI50 [17] | GI50 [18] | GI50 [19] |
| --- | --- | --- | --- | --- | --- | --- | --- | --- | --- | --- | --- | --- | --- | --- | --- | --- | --- | --- | --- |
| NNc1nncc2[nH]nnc12 | > 100 µM (inactive) | > 100 µM (inactive) | > 100 µM (inactive) | > 100 µM (inactive) | > 100 | > 100 µM (inactive) | > 100 µM (inactive) | > 100 µM (inactive) | > 100 µM (inactive) | > 100 µM (inactive) | > 100 µM (inactive) | > 100 µM (inactive) | > 100 µM (inactive) | 5.74 µM (inactive) | 41.5 µM (inactive) | > 100 µM (inactive) | > 100 µM (inactive) |  |  |
| c1ccc2c(c1)sc1c3cnccc3ccc21 | > 100 µM (inactive) | 33.7 µM (inactive) | 90.8 µM (inactive) | 6.71 µM (inactive) | > 100 | > 100 µM (inactive) | > 100 µM (inactive) | > 100 µM (inactive) | > 100 µM (inactive) |  |  | > 100 µM (inactive) | > 100 µM (inactive) | > 100 µM (inactive) | 11.6 µM (inactive) | > 100 µM (inactive) | > 100 µM (inactive) | 71.6 µM (inactive) | > 100 µM (inactive) |
| Cc1ccc(Cc2n[nH]c(=O)n2/N=C\CC/C=N\n2c(Cc3ccc(C)cc3)n[nH]c2=O)cc1 | 90.4 µM (inactive) | > 100 µM (inactive) | > 100 µM (inactive) | 33.7 µM (inactive) | 26 | 27.3 µM (inactive) | 26.9 µM (inactive) | 21.1 µM (inactive) | > 100 µM (inactive) | 17.8 µM (inactive) | 20.9 µM (inactive) | 33.5 µM (inactive) | 44.7 µM (inactive) | 16.6 µM (inactive) |  | 38.6 µM (inactive) | 19.2 µM (inactive) | 16.9 µM (inactive) | > 100 µM (inactive) |
| N#CCCNCCN(CCN(C(=O)Nc1ccccc1)c1ccccc1)C(=O)Nc1ccccc1 | 51.2 µM (inactive) | 48.1 µM (inactive) | 20.2 µM (inactive) | 67.1 µM (inactive) | 41.5 | 21.1 µM (inactive) | 33.2 µM (inactive) | 58.3 µM (inactive) | 64.6 µM (inactive) | 59.4 µM (inactive) | 31.7 µM (inactive) | 18.7 µM (inactive) | 78.9 µM (inactive) | 25.8 µM (inactive) | 34.2 µM (inactive) | 41.5 µM (inactive) | > 100 µM (inactive) | 37.6 µM (inactive) |  |
| O=C(O)/C=C/C(=O)O [FUMARIC ACID] |  | > 100 µM (inactive) | > 100 µM (inactive) | > 100 µM (inactive) | > 100 | > 100 µM (inactive) | > 100 µM (inactive) | > 100 µM (inactive) | > 100 µM (inactive) | > 100 µM (inactive) |  | > 100 µM (inactive) | > 100 µM (inactive) | > 100 µM (inactive) | > 100 µM (inactive) | > 100 µM (inactive) | > 100 µM (inactive) | > 100 µM (inactive) | > 100 µM (inactive) |
| O=C(Nc1nc2ncn(CCOC(=O)c3ccccc3)c2c(=O)[nH]1)c1ccccc1 | > 100 µM (inactive) | 8.09 µM (inactive) | 8.47 µM (inactive) | > 84.3 µM (inactive) | 4.7 | 15.3 µM (inactive) | 20.1 µM (inactive) | 66.2 µM (inactive) | > 100 µM (inactive) | 33.3 µM (inactive) | 42.4 µM (inactive) | 50.7 µM (inactive) | 11.8 µM (inactive) | 18.9 µM (inactive) | 5.35 µM (inactive) | 28.9 µM (inactive) | 7.24 µM (inactive) | 5.92 µM (inactive) |  |
| COc1cc2c(cc1OC)C1c3ccccc3CCN1CCC2.[O-][Cl+3]([O-])([O-])O (centres undefined) |  | > 100 µM (inactive) | > 100 µM (inactive) | > 100 µM (inactive) | > 100 | > 100 µM (inactive) |  | > 100 µM (inactive) | > 100 µM (inactive) | > 100 µM (inactive) |  | > 100 µM (inactive) | > 100 µM (inactive) | > 100 µM (inactive) | > 100 µM (inactive) | > 100 µM (inactive) | > 100 µM (inactive) | > 100 µM (inactive) |  |
| CC1=CC(=O)/C(=C/Nc2nc(-c3ccc([N+](=O)[O-])cc3)cs2)C(=O)O1 | 80 µM (inactive) | > 100 µM (inactive) | > 100 µM (inactive) | > 100 µM (inactive) | > 100 | > 100 µM (inactive) | > 100 µM (inactive) | > 100 µM (inactive) | > 100 µM (inactive) | > 100 µM (inactive) | 27.7 µM (inactive) |  | > 100 µM (inactive) | > 100 µM (inactive) |  | > 100 µM (inactive) | > 100 µM (inactive) | > 100 µM (inactive) | > 100 µM (inactive) |
| O=C(/C=C\Nc1ccccc1O)C(F)(F)F |  | > 100 µM (inactive) | 13.9 µM (inactive) | 51.2 µM (inactive) | 40.8 | 40.3 µM (inactive) | 78.3 µM (inactive) | > 100 µM (inactive) | > 100 µM (inactive) | 90.4 µM (inactive) | > 100 µM (inactive) | > 100 µM (inactive) | 54.8 µM (inactive) | > 100 µM (inactive) | 36.3 µM (inactive) | 39 µM (inactive) | 41.6 µM (inactive) | 95.3 µM (inactive) | 71.9 µM (inactive) |
| O=C(O)c1cc2ccccc2c(S(=O)(=O)O)c1O | > 100 µM (inactive) | > 100 µM (inactive) | > 100 µM (inactive) | > 100 µM (inactive) | > 100 | > 100 µM (inactive) | > 100 µM (inactive) | > 100 µM (inactive) | > 100 µM (inactive) | > 100 µM (inactive) | > 100 µM (inactive) | > 100 µM (inactive) | > 100 µM (inactive) | > 100 µM (inactive) |  | > 100 µM (inactive) | > 100 µM (inactive) | > 100 µM (inactive) | > 100 µM (inactive) |
| CC(=O)OCC1OC(n2c(C)c(C(C)=O)c(-c3ccc(Cl)cc3)c(C#N)c2=S)C(OC(C)=O)C(OC(C)=O)C1OC(C)=O (centres undefined) | > 100 µM (inactive) | > 100 µM (inactive) | > 100 µM (inactive) |  | > 100 | > 100 µM (inactive) | > 100 µM (inactive) | > 100 µM (inactive) |  | > 100 µM (inactive) | > 100 µM (inactive) | > 100 µM (inactive) | > 100 µM (inactive) | > 100 µM (inactive) | > 100 µM (inactive) | > 100 µM (inactive) | > 100 µM (inactive) | > 100 µM (inactive) | > 100 µM (inactive) |
| COc1cc(C(=O)/C=C/c2ccc(OCCSCCCCCCCCCCSCCOc3ccc(/C=C/C(=O)c4cc(OC)c(OC)c(OC)c4)cc3)cc2)cc(OC)c1OC | > 100 µM (inactive) | > 100 µM (inactive) | > 100 µM (inactive) | > 100 µM (inactive) | > 100 | > 100 µM (inactive) | > 100 µM (inactive) | > 100 µM (inactive) | > 100 µM (inactive) | > 100 µM (inactive) | > 100 µM (inactive) | > 100 µM (inactive) | > 100 µM (inactive) | > 100 µM (inactive) | > 100 µM (inactive) | > 100 µM (inactive) | > 100 µM (inactive) | > 100 µM (inactive) |  |
| O=[N+]([O-])c1ccc(/N=N\c2c(O)ccc3ccccc23)c([N+](=O)[O-])c1 | > 100 µM (inactive) | > 100 µM (inactive) | > 100 µM (inactive) | > 60.4 µM (inactive) | > 100 | > 100 µM (inactive) | > 100 µM (inactive) | > 100 µM (inactive) | > 100 µM (inactive) | > 100 µM (inactive) | > 100 µM (inactive) | > 100 µM (inactive) | > 100 µM (inactive) | > 100 µM (inactive) |  | > 100 µM (inactive) | > 100 µM (inactive) | > 100 µM (inactive) | > 100 µM (inactive) |
| OCC(CN1CCCCC1)(CN1CCCCC1)CN1CCCCC1 | > 100 µM (inactive) | > 100 µM (inactive) | > 100 µM (inactive) | > 100 µM (inactive) | > 100 | > 100 µM (inactive) | > 100 µM (inactive) | > 100 µM (inactive) | > 100 µM (inactive) | > 100 µM (inactive) | > 100 µM (inactive) | > 100 µM (inactive) | > 100 µM (inactive) |  | > 100 µM (inactive) | > 100 µM (inactive) | > 100 µM (inactive) | > 100 µM (inactive) | > 100 µM (inactive) |
| OC(c1ccccc1)c1c(-c2ccccc2)[nH]c(-c2ccccc2)c1C(O)c1ccccc1 (centres undefined) | 3.79 µM (inactive) | 3.73 µM (inactive) | 1.74 µM (inactive) | 3.21 µM (inactive) | 3.76 | 3.66 µM (inactive) | 3.52 µM (inactive) | 2.69 µM (inactive) | 2.77 µM (inactive) |  | 2.88 µM (inactive) | 3.4 µM (inactive) | 2.38 µM (inactive) |  | 4.1 µM (inactive) | 4.86 µM (inactive) | 3.78 µM (inactive) | 2.19 µM (inactive) | < 0.01 µM (active) |
| O=C(O)c1ccccc1/C=N/N=C1c2ccccc2-c2ccccc21 | 68.4 µM (inactive) | 31.6 µM (inactive) | 32.1 µM (inactive) | 29 µM (inactive) | 44.8 | 42.2 µM (inactive) | 38.5 µM (inactive) | 52.8 µM (inactive) | 50.2 µM (inactive) | 44.9 µM (inactive) | 29 µM (inactive) | 51.2 µM (inactive) | 28.2 µM (inactive) |  | 27.3 µM (inactive) | 30.7 µM (inactive) | 22 µM (inactive) | 37.7 µM (inactive) | 35.2 µM (inactive) |
